How the values were obtained:
[1] = system: 293A transformed cell line; conditions: FIG. 8; for Cell proliferation on treatment with the stress inducer / cytotoxic compound alone: no test compound added
Protocol: It is noted that in addition to Tm, camptothecin (CPT) was also used as a compound to confer cytotoxicity, and this was used as a positive control for cell death. Cell proliferation rate was determined by obtaining bright field images using a high content confocal imaging system (PerkinElmer, Operetta CLS) at intervals of 4 hours after starting the experiment, and calculating cell density from the bright field image using an image analysis software Harmony (PerkinElmer).

[2] = system: endoplasmic reticulum stress response (EUA activity) in 293A transformed cells; assay: Endoplasmic reticulum stress reporter (10×ERSE2-10×UPRE-5×AARE-EGFP) fluorescence under Tunicamycin; format: cell-based; conditions: for inhibition at 5 µM: 293A, read-out: Endoplasmic reticulum stress inhibition rate (Z)%; for Suppression of EUA activity (endoplasmic reticulum stress response activation) caused by Tunicamycin: FIG. 5
[3] = system: 293A transformed cell line; assay: Intracellular ATP level (viability) of Tm-treated 293A transformed cell line; format: cell-based; conditions: Tm treatment; 43 hours; FIG. 9
Protocol: (§1) Intracellular ATP level or activity of lactate dehydrogenase (LDH), which is released from cells that have been damaged in the cell membrane, were measured in order to confirm the effect of Compound No. 1 against cell growth or cytotoxicity. […] Each were measured using an ATP assay kit (Promega, Celltiter-glo) and LDH activity measurement kit (Dojindo, Cytotoxicity LDH Assay Kit-WST) using a multiplate reader, Cytation 3 (Bio-Tek) according to the protocols of the kits (number of tests n=4).

[4] = system: 293A transformed cell line; assay: Lactate dehydrogenase (LDH) release (cytotoxicity) of Tm-treated 293A transformed cell line; format: cell-based; conditions: 43 hours, FIG. 10
Protocol: as §1

[5] = Compound concentration: 5 μM, Tm-induced, EGFP fluorescence

## CC[C@@]1(O)C(=O)OCc2c1cc1n(c2=O)Cc2cc3ccccc3nc2-1 [camptothecin]
[1]
  Cell proliferation on treatment with the stress inducer / cytotoxic compound alone: almost completely inhibited

## Fc1ccccc1-c1cn2c(n1)sc1ccccc12 [compound 5]
[2]; [5]
  inhibition at 5 µM: 79%

## Tunicamycin [Tm]
[1]
  Cell proliferation on treatment with the stress inducer / cytotoxic compound alone: almost completely inhibited

## Cc1ccc(-c2cn3c(n2)sc2cc(C(=O)NCCCN4CCCCC4C)ccc23)cc1 (centres unmarked) [compound 7]
[2]; [5]
  inhibition at 5 µM: 95%

## CCc1ccc(-c2cn3c(n2)sc2cc(C(=O)OC)ccc23)cc1 [compound 4]
[2]; [5]
  inhibition at 5 µM: 99%

## COC(=O)c1ccc2c(c1)sc1nc(-c3ccccc3)cn12 [compound 2]
[2]; [5]
  inhibition at 5 µM: 100%

## CS(=O)(=O)c1ccc2c(c1)sc1nc(-c3ccccc3Cl)cn12 [compound 12]
[2]; [5]
  inhibition at 5 µM: 54%

## CCOC(=O)C1CCN(C(=O)c2ccc3c(c2)sc2nc(-c4ccc(OC)cc4)cn23)CC1 [compound 13]
[2]; [5]
  inhibition at 5 µM: 60%

## C[C@H](CCC(=O)NCCS(=O)(=O)O)[C@H]1CC[C@H]2[C@@H]3[C@@H](O)C[C@@H]4C[C@H](O)CC[C@]4(C)[C@H]3CC[C@]12C [TUDCA, Tauroursodeoxycholic Acid, reference compound]
[2]; [5]
  inhibition at 5 µM: 0%
[2]; concentration not given
  Suppression of EUA activity (endoplasmic reticulum stress response activation) caused by Tunicamycin: could not suppress

## CCN(CC)CCCNC(=O)c1ccc2c(c1)sc1nc(-c3ccccc3)cn12 [compound 9]
[2]; [5]
  inhibition at 5 µM: 61%

## Cc1ccc(-c2cn3c(n2)sc2cc(C(=O)NCCCN4CCOCC4)ccc23)cc1 [compound 11]
[2]; [5]
  inhibition at 5 µM: 66%

## Clc1ccc(-c2cn3c(n2)sc2ccccc23)cc1 [compound 3]
[2]; [5]
  inhibition at 5 µM: 101%

## O=C([O-])CCCc1ccccc1.[Na+] [4PBA, Sodium 4-phenylbutyrate, reference compound]
[2]; [5]
  inhibition at 5 µM: 0%
[2]; concentration not given
  Suppression of EUA activity (endoplasmic reticulum stress response activation) caused by Tunicamycin: could not suppress

## CCCC(=O)NCCc1csc(-c2ccc(Cl)cc2)n1 [Azoramide]
[2]; 40 μM
  Suppression of EUA activity (endoplasmic reticulum stress response activation) caused by Tunicamycin: had an inhibitory effect
[2]; [5]
  Endoplasmic reticulum stress inhibition rate (Z)%: 0%
[3]
  Intracellular ATP level recovered, % of that of UT cells: approximately 75%
[4]
  LDH activity increased by Tm treatment, decreased to % of that of UT cells: approximately 50%
[1]; 40 μM, 0.2 μg/mL Tm
  Cell proliferation recovered, % of that of UT cells: approximately 58%

## COc1cccc(-c2cn3c(n2)sc2cc(C(=O)NCCCN4CCOCC4)ccc23)c1 [compound 8]
[2]; [5]
  inhibition at 5 µM: 98%

## O=C(NCCCN1CCCCC1)c1ccc2c(c1)sc1nc(-c3ccccc3)cn12 [compound 10]
[2]; [5]
  inhibition at 5 µM: 41%

## CCN(CC)CCCNC(=O)c1ccc2c(c1)sc1nc(-c3ccc(OC)cc3)cn12 [compound 6]
[2]; [5]
  inhibition at 5 µM: 93%

Source: patent US11559518B2, “Endoplasmic reticulum stress regulator comprising benzothiazoimidazolyl compound” (ER Stress Research Institute, Inc., priority 2017, dated 2023)
